Results: the supplement of paper PMC9663587

Key:
THZ1 = compound: CN(C)C/C=C/C(=O)Nc1ccc(C(=O)Nc2cccc(Nc3ncc(Cl)c(-c4c[nH]c5ccccc45)n3)c2)cc1 [THZ1]; assay: GR value, 72 h; higher = faster growth (1 = untreated, <0 = killing);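 also: breast cancer and non-malignant breast epithelial lines, nine half-log doses, viable cells counted by Hoechst and LIVE/DEAD dye imaging versus time-zero plates and DMSO controls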
YKL-5-124 = compound: C=CC(=O)Nc1ccc(C(=O)Nc2[nH]nc3c2CN(C(=O)N[C@H](CN(C)C)c2ccccc2)C3(C)C)cc1 [YKL-5-124]; assay: as above
[1] = compound: CCN1CCN(Cc2ccc(Nc3ncc(F)c(-c4cc(F)c5nc(C)n(C(C)C)c5c4)n3)nc2)CC1; assay: as above
Neratinib/HKI272 = compound: CCOc1cc2ncc(C#N)c(Nc3ccc(OCc4ccccn4)c(Cl)c3)c2cc1NC(=O)/C=C/CN(C)C [Neratinib/HKI272]; assay: as above
[2] = compound: CC(=O)c1c(C)c2cnc(Nc3ccc(N4CCNCC4)cn3)nc2n(C2CCCC2)c1=O; assay: as above
LEE011/Ribociclib = compound: CN(C)C(=O)c1cc2cnc(Nc3ccc(N4CCNCC4)cn3)nc2n1C1CCCC1 [LEE011/Ribociclib]; assay: as above
BSJ-03-123 = compound: CC(=O)c1c(C)c2cnc(Nc3ccc(N4CCN(CCOCCOCCOCCNC(=O)COc5cccc6c5C(=O)N(C5CCC(=O)NC5=O)C6=O)CC4)cn3)nc2n(C2CCCC2)c1=O [BSJ-03-123]; assay: as above
Flavopiridol [3] = compound: T1, CN1CC[C@H](c2c(O)cc(O)c3c(=O)cc(-c4ccccc4Cl)oc23)[C@H](O)C1 [Flavopiridol]; assay: as above
THZ531 = compound: CN(C)C/C=C/C(=O)Nc1ccc(C(=O)N2CCC[C@@H](Nc3ncc(Cl)c(-c4c[nH]c5ccccc45)n3)C2)cc1 [THZ531]; assay: as above
[4] = compound: CCc1cnn2c(NCc3ccc[n+]([O-])c3)cc(N3CCCC[C@H]3CCO)nc12; assay: as above
ABT-737 = compound: CN(C)CC[C@H](CSc1ccccc1)Nc1ccc(S(=O)(=O)NC(=O)c2ccc(N3CCN(Cc4ccccc4-c4ccc(Cl)cc4)CC3)cc2)cc1[N+](=O)[O-] [ABT-737]
Saracatinib/AZD0530 = compound: CN1CCN(CCOc2cc(OC3CCOCC3)c3c(Nc4c(Cl)ccc5c4OCO5)ncnc3c2)CC1 [Saracatinib/AZD0530]
Flavopiridol [5] = compound: T1, Flavopiridol
Taselisib/GDC0032 = compound: Cc1nc(-c2cn3c(n2)-c2ccc(-c4cnn(C(C)(C)C(N)=O)c4)cc2OCC3)n(C(C)C)n1 [Taselisib/GDC0032]
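For GR50, 72 h in this document: breast cancer and non-malignant breast epithelial cell lines, Deep Dye Drop or Dye Drop imaging, nine half-log doses, GR normalized to time-zero plates and DMSO-only controls.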

For MDAMB436, the GR value (THZ1; 0.0001 µM) was 0.928 GR, the GR value (THZ1; 0.0003162 µM) was 1.07 GR and the GR value (THZ1; 0.001 µM) was 1.03 GR. For the same cell line, the GR value (THZ1; 0.003162 µM) was 1.02 GR, the GR value (THZ1; 0.01 µM) was 1.1 GR and the GR value (THZ1; 0.03162 µM) was 1.02 GR. It also gave a GR value (THZ1; 0.1 µM) of 0.478 GR, a GR value (THZ1; 0.3162 µM) of 0.229 GR and a GR value (THZ1; 1 µM) of -0.138 GR. For the same cell line, the GR value (YKL-5-124; 0.001 µM) was 0.84 GR, the GR value (YKL-5-124; 0.003162 µM) was 0.563 GR and the GR value (YKL-5-124; 0.01 µM) was 0.533 GR. It also gave a GR value (YKL-5-124; 0.03162 µM) of 0.432 GR, a GR value (YKL-5-124; 0.1 µM) of 0.409 GR and a GR value (YKL-5-124; 0.3162 µM) of 0.3 GR. It also gave a GR value (YKL-5-124; 1 µM) of 0.405 GR, a GR value (YKL-5-124; 3.162 µM) of 0.291 GR and a GR value (YKL-5-124; 10 µM) of -0.0192 GR. For the same cell line, the GR value ([1]; 0.001 µM) was 1.04 GR, the GR value ([1]; 0.003162 µM) was 1 GR and the GR value ([1]; 0.01 µM) was 1.04 GR. It also gave a GR value ([1]; 0.03162 µM) of 1.03 GR, a GR value ([1]; 0.1 µM) of 1.02 GR and a GR value ([1]; 0.3162 µM) of 1 GR. The GR value ([1]; 1 µM) was 0.719 GR, the GR value ([1]; 3.162 µM) was 0.337 GR and the GR value ([1]; 10 µM) was -0.322 GR. For the same cell line, the GR value (Neratinib/HKI272; 0.0003162 µM) was 1 GR, the GR value (Neratinib/HKI272; 0.001 µM) was 0.997 GR and the GR value (Neratinib/HKI272; 0.003162 µM) was 1.03 GR. The GR value (Neratinib/HKI272; 0.01 µM) was 1.04 GR, the GR value (Neratinib/HKI272; 0.03162 µM) was 0.993 GR and the GR value (Neratinib/HKI272; 0.1 µM) was 0.878 GR. For the same cell line, the GR value (Neratinib/HKI272; 0.3162 µM) was 0.641 GR, the GR value (Neratinib/HKI272; 1 µM) was 0.43 GR and the GR value (Neratinib/HKI272; 3.162 µM) was 0.0253 GR. It also gave a GR value ([2]; 0.0003162 µM) of 1.06 GR, a GR value ([2]; 0.001 µM) of 1.04 GR and a GR value ([2]; 0.003162 µM) of 1.03 GR. For the same cell line, the GR value ([2]; 0.01 µM) was 1.04 GR, the GR value ([2]; 0.03162 µM) was 0.977 GR and the GR value ([2]; 0.1 µM) was 1.03 GR. For the same cell line, the GR value ([2]; 0.3162 µM) was 1.01 GR, the GR value ([2]; 1 µM) was 1.09 GR and the GR value ([2]; 3.162 µM) was 1.02 GR. The GR value (LEE011/Ribociclib; 0.001 µM) was 0.982 GR, the GR value (LEE011/Ribociclib; 0.003162 µM) was 1.05 GR and the GR value (LEE011/Ribociclib; 0.01 µM) was 1.06 GR. The GR value (LEE011/Ribociclib; 0.03162 µM) was 1.08 GR, the GR value (LEE011/Ribociclib; 0.1 µM) was 0.913 GR and the GR value (LEE011/Ribociclib; 0.3162 µM) was 1.03 GR. It also gave a GR value (LEE011/Ribociclib; 1 µM) of 0.95 GR, a GR value (LEE011/Ribociclib; 3.162 µM) of 0.982 GR and a GR value (LEE011/Ribociclib; 10 µM) of 0.951 GR. It also gave a GR value (BSJ-03-123; 0.001 µM) of 1.1 GR, a GR value (BSJ-03-123; 0.003162 µM) of 1.07 GR and a GR value (BSJ-03-123; 0.01 µM) of 1.02 GR. For the same cell line, the GR value (BSJ-03-123; 0.03162 µM) was 1.03 GR, the GR value (BSJ-03-123; 0.1 µM) was 1.11 GR and the GR value (BSJ-03-123; 0.3162 µM) was 0.971 GR. The GR value (BSJ-03-123; 1 µM) was 0.999 GR, the GR value (BSJ-03-123; 3.162 µM) was 0.966 GR and the GR value (BSJ-03-123; 10 µM) was -0.0484 GR. The GR value (Flavopiridol [3]; 0.0001 µM) was 0.988 GR, the GR value (Flavopiridol [3]; 0.0003162 µM) was 0.97 GR and the GR value (Flavopiridol [3]; 0.001 µM) was 0.97 GR. It also gave a GR value (Flavopiridol [3]; 0.003162 µM) of 0.889 GR, a GR value (Flavopiridol [3]; 0.01 µM) of 1.01 GR and a GR value (Flavopiridol [3]; 0.03162 µM) of 0.905 GR. The GR value (Flavopiridol [3]; 0.1 µM) was 0.701 GR, the GR value (Flavopiridol [3]; 0.3162 µM) was 0.125 GR and the GR value (Flavopiridol [3]; 1 µM) was -0.0603 GR. The GR value (THZ531; 0.0001 µM) was 1.1 GR, the GR value (THZ531; 0.0003162 µM) was 1.02 GR and the GR value (THZ531; 0.001 µM) was 0.944 GR. For the same cell line, the GR value (THZ531; 0.003162 µM) was 1.07 GR, the GR value (THZ531; 0.01 µM) was 1.12 GR and the GR value (THZ531; 0.03162 µM) was 1.01 GR. It also gave a GR value (THZ531; 0.1 µM) of 0.676 GR, a GR value (THZ531; 0.3162 µM) of 0.328 GR and a GR value (THZ531; 1 µM) of 0.0201 GR. It also gave a GR value ([4]; 0.0001 µM) of 0.969 GR, a GR value ([4]; 0.0003162 µM) of 1.01 GR and a GR value ([4]; 0.001 µM) of 1.07 GR. The GR value ([4]; 0.003162 µM) was 1.11 GR, the GR value ([4]; 0.01 µM) was 0.868 GR and the GR value ([4]; 0.03162 µM) was -0.101 GR. It also gave a GR value ([4]; 0.1 µM) of -0.124 GR, a GR value ([4]; 0.3162 µM) of -0.0986 GR and a GR value ([4]; 1 µM) of -0.15 GR. The “GR50, 72 h” value (ABT-737) was over 10 µM, the “GR50, 72 h” value (Saracatinib/AZD0530) was over 10 µM and the “GR50, 72 h” value (Flavopiridol [5]) was 0.159 µM. The “GR50, 72 h” value (Taselisib/GDC0032) was 4.66 µM.
In the case of HCC1500, the GR value ([1]; 0.001 µM) was 1.1 GR, the GR value ([1]; 0.003162 µM) was 0.961 GR and the GR value ([1]; 0.01 µM) was 0.802 GR. For the same cell line, the GR value ([1]; 0.03162 µM) was 0.592 GR, the GR value ([1]; 0.1 µM) was 0.533 GR and the GR value ([1]; 0.3162 µM) was 0.701 GR. It also gave a GR value ([1]; 1 µM) of 0.494 GR, a GR value ([1]; 3.162 µM) of 0.395 GR and a GR value ([1]; 10 µM) of 0.195 GR. The GR value (Neratinib/HKI272; 0.0003162 µM) was 1.03 GR, the GR value (Neratinib/HKI272; 0.001 µM) was 1.13 GR and the GR value (Neratinib/HKI272; 0.003162 µM) was 1.01 GR. The GR value (Neratinib/HKI272; 0.01 µM) was 1.02 GR, the GR value (Neratinib/HKI272; 0.03162 µM) was 0.915 GR and the GR value (Neratinib/HKI272; 0.1 µM) was 0.889 GR. The GR value (Neratinib/HKI272; 0.3162 µM) was 0.793 GR, the GR value (Neratinib/HKI272; 1 µM) was 0.416 GR and the GR value (Neratinib/HKI272; 3.162 µM) was -0.245 GR. It also gave a GR value ([2]; 0.0003162 µM) of 1.03 GR, a GR value ([2]; 0.001 µM) of 1.16 GR and a GR value ([2]; 0.003162 µM) of 1.19 GR. The GR value ([2]; 0.01 µM) was 1.11 GR, the GR value ([2]; 0.03162 µM) was 0.838 GR and the GR value ([2]; 0.1 µM) was 0.676 GR. The GR value ([2]; 0.3162 µM) was 0.581 GR, the GR value ([2]; 1 µM) was 0.709 GR and the GR value ([2]; 3.162 µM) was 0.592 GR. The GR value ([4]; 0.0001 µM) was 1.07 GR, the GR value ([4]; 0.0003162 µM) was 0.975 GR and the GR value ([4]; 0.001 µM) was 1.06 GR. It also gave a GR value ([4]; 0.003162 µM) of 1.06 GR, a GR value ([4]; 0.01 µM) of 0.674 GR and a GR value ([4]; 0.03162 µM) of -0.172 GR. The GR value ([4]; 0.1 µM) was -0.576 GR, the GR value ([4]; 0.3162 µM) was -0.534 GR and the GR value ([4]; 1 µM) was -0.601 GR. The “GR50, 72 h” value (ABT-737) was 0.00851 µM, the “GR50, 72 h” value (Saracatinib/AZD0530) was 0.259 µM and the “GR50, 72 h” value (Taselisib/GDC0032) was 1.88 µM.
